# Source: patent publication US20230012368A1 (Hoffmann-La Roche Inc., priority 2018, published 2023)
# Where a name gives a salt, the structure may show the parent alone. Read-outs that look alike come from different tables or passages of the source.
# Test system: Acinetobacter baumannii ATCC 17978
# Test: Antimicrobial susceptibility testing: 90% growth inhibitory concentration (IC90) determination
# Format: cell-based
# Conditions: 90% growth inhibitory concentration, Acinetobacter baumannii ATCC17978, Iso-Sensitest broth, OD 600 nm over 16h, read-out: ATCC17978 IC90
# Procedure: Antimicrobial Susceptibility Testing:
# 90% Growth Inhibitory Concentration (IC90) Determination
# The in vitro antimicrobial activity of the compounds was determined according to the following procedure:
# The assay used a 10-points Iso-Sensitest broth medium to measure quantitatively the in vitro activity of the compounds against Acinetobacter baumannii ATCC 17978 and Acinetobacter baumannii ATCC 17961.
# Stock compounds in DMSO were serially twofold diluted (e.g. range from 50 to 0.097 μM final concentration) in 384 wells microtiter plates and inoculated with 49 μl the bacterial suspension in Iso-Sensitest medium to have a final cell concentration of ˜5×10^(5) CFU/ml in a final volume/well of 50 ul/well. Microtiter plates were incubated at 35±2° C.
# Bacterial cell growth was determined with the measurement of optical density at λ=600 nm each 20 minutes over a time course of 16h. Growth inhibition was calculated during the logarithmic growth of the bacterial cells with determination of the concentration inhibiting 50% (IC50) and 90% (IC90) of the growth.
# Table 1 provides the 90% growth inhibitory concentrations (IC90) in micromoles per liter of the compounds of present invention obtained against the strain Acinetobacter baumannii ATCC17978 and Acinetobacter baumannii ATCC17961.
# [1] = Acinetobacter baumannii, ATCC17978, 16 h
SMILES,IC90 [1] [nM],IC90 [nM]
"Cc1cc(Nc2nccn3c(-c4ccc(OC(F)F)cc4)cnc23)ccc1C(=O)N(C)CCN1CCNCC1 [Example 45, 4-[[3-[4-(difluoromethoxy)phenyl]imidazo[1,2-a]pyrazin-8-yl]amino]-N,2-dimethyl-N-(2-piperazin-1-ylethyl)benzamide]",350,
Cc1cc(Nc2nccn3c(-c4ccc(OC(F)F)cc4)cnc23)ccc1C(=O)NCCN1CCNCC1 [Example 46],490,
COc1ccc(-c2cnc3c(Nc4ccc(C(=O)NCCC5CCN(C)CC5)c(C)c4)nccn23)cc1 [Example 48],220,
COc1ccc(-c2cnc3c(Nc4ccc(C(=O)NCCN5CCN(C)CC5)c(C)c4)nccn23)cc1 [Example 49],470,
"Cc1cc(Nc2nccn3c(-c4ccc(OC(F)F)cc4)cnc23)ccc1C(=O)N(C)CCN(C)C [Example 50, 4-((3-(4-(difluoromethoxy)phenyl)imidazo[1,2-a]pyrazin-8-yl)amino)-N-(2-(dimethylamino)ethyl)-N,2-dimethylbenzamide]",4300,
"COc1ccc(-c2cnc3c(Nc4ccc(C(=O)NCCCN)c(C)c4)nccn23)cc1 [Example 51, N-(3-aminopropyl)-4-((3-(4-methoxyphenyl)imidazo [1,2-a]pyrazin-8-yl)amino)-2-methylbenzamide hydrochloride]",960,
"COc1ccc(-c2cnc3c(Nc4ccc(C(=O)NCC5CCN(C)CC5)c(C)c4)nccn23)cc1 [Example 52, 4-[[3-(4-methoxyphenyl)imidazo [1,2-a]pyrazin-8-yl]amino]-2-methyl-N-[(1-methylpiperidin-4-yl)methyl]benzamide]",750,
"CNC(=O)c1ccc(Nc2nccn3c(-c4ccc(OC(F)F)cc4)cnc23)cc1[N+](=O)[O-] [Example 54, 4-((3-(4-(difluoromethoxy)phenyl)imidazo[1,2-a]pyrazin-8-yl)amino)-N-methyl-2-nitrobenzamide]",820,
"COc1ccc(-c2cnc3c(Nc4ccc(C(=O)NCC5CCNCC5)c(C)c4)nccn23)c(F)c1F [Example 55, 4-[[3-(2,3-difluoro-4-methoxy-phenyl)imidazo[1,2-a]pyrazin-8-yl]amino]-2-methyl-N-(4-piperidylmethyl) benzamide]",260,
"COc1ccc(-c2cnc3c(Nc4ccc(C(=O)NCCN5CCNCC5)c(C)c4)nccn23)c(F)c1F [Example 56, 4-((3-(2,3-difluoro-4-methoxyphenyl)imidazo [1,2-a]pyrazin-8-yl)amino)-2-methyl-N-(2-(piperazin-1-yl)ethyl)benzamide hydrochloride]",,250
"COc1ccc(-c2cnc3c(Nc4ccc(C(=O)NCC5CCNC5)c(C)c4)nccn23)c(F)c1F (stereo not drawn) [Example 57, 4-[[3-(2,3-difluoro-4-methoxy-phenyl)imidazo[1,2-a]pyrazin-8-yl]amino]-2-methyl-N-(pyrrolidin-3-ylmethyl)benzamide]",290,
"COc1ccc(-c2cnc3c(Nc4ccc(C(=O)NCC5CCNCC5)c(Cl)c4)nccn23)c(F)c1F [Example 58, 2-chloro-4-[[3-(2,3-difluoro-4-methoxy-phenyl)imidazo[1,2-a]pyrazin-8-yl]amino]-N-(4-piperidylmethyl) benzamide]",170,
"COc1ccc(-c2cnc3c(Nc4ccc(C(=O)NCCN5CCNCC5)c(Cl)c4)nccn23)c(F)c1F [Example 59, 2-chloro-4-[[3-(2,3-difluoro-4-methoxy-phenyl)imidazo[1,2-a]pyrazin-8-yl]amino]-N-(2-piperazin-1-ylethyl)benzamide]",130,
"COc1ccc(-c2cnc3c(Nc4ccc(C(=O)NCC5CCNC5)c(Cl)c4)nccn23)c(F)c1F (stereo not drawn) [Example 60, 2-chloro-4-[[3-(2,3-difluoro-4-methoxy-phenyl)imidazo[1,2-a]pyrazin-8-yl]amino]-N-(pyrrolidin-3-ylmethyl)benzamide]",220,
"COc1ccc(-c2cnc3c(Nc4ccc(C(=O)N(C)CCN5CCNCC5)c(C)c4)nccn23)c(F)c1F [Example 61, 4-((3-(2,3-difluoro-4-methoxyphenyl)imidazo [1,2-a]pyrazin-8-yl)amino)-N,2-dimethyl-N-(2-(piperazin-1-yl)ethyl)benzamide]",190,
"COc1ccc(-c2cnc3c(Nc4ccc(C(=O)NCC5CCN(C)CC5)c(C)c4)nccn23)c(F)c1F [Example 62, 4-((3-(2,3-difluoro-4-methoxyphenyl)imidazo [1,2-a]pyrazin-8-yl)amino)-2-methyl-N-((1-methylpiperidin-4-yl)methyl)benzamide]",250,
"COc1ccc(-c2cnc3c(Nc4ccc(C(=O)N(C)CCC5CCNCC5)c(C)c4)nccn23)c(F)c1F [Example 63, 4-((3-(2,3-difluoro-4-methoxyphenyl)imidazo [1,2-a]pyrazin-8-yl)amino)-N,2-dimethyl-N-(2-(piperidin-4-yl)ethyl)benzamide]",90,
"COc1ccc(-c2cnc3c(Nc4ccc(C(=O)NCCCN)c(C)c4)nccn23)c(F)c1F [Example 64, N-(3-aminopropyl)-4-((3-(2,3-difluoro-4-methoxyphenyl)imidazo [1,2-a]pyrazin-8-yl)amino)-2-methylbenzamide]",230,
"COc1ccc(-c2cnc3c(Nc4ccc(C(=O)NCCCN5CCNC(=O)C5)c(C)c4)nccn23)c(F)c1F [Example 65, 4-((3-(2,3-difluoro-4-methoxyphenyl)imidazo [1,2-a]pyrazin-8-yl)amino)-2-methyl-N-(3-(3-oxopiperazin-1-yl)propyl)benzamide]",120,
"COc1ccc(-c2cnc3c(Nc4ccc(C(=O)NCCCN5CCN(C)C(=O)C5)c(C)c4)nccn23)c(F)c1F [Example 66, 4-((3-(2,3-difluoro-4-methoxyphenyl)imidazo [1,2-a]pyrazin-8-yl)amino)-2-methyl-N-(3-(4-methyl-3-oxopiperazin-1-yl)propyl)benzamide]",310,
"COc1ccc(-c2cnc3c(Nc4ccc(C(=O)NCCCN5CCNCC5)c(C)c4)nccn23)c(F)c1F [Example 67, 4-((3-(2,3-difluoro-4-methoxyphenyl)imidazo [1,2-a]pyrazin-8-yl)amino)-2-methyl-N-(3-(piperazin-1-yl)propyl)benzamide]",120,
"COc1ccc(-c2cnc3c(Nc4ccc(C(=O)NCCCS(=O)(=O)N5CCNCC5)c(C)c4)nccn23)c(F)c1F [Example 68, 4-((3-(2,3-difluoro-4-methoxyphenyl)imidazo [1,2-a]pyrazin-8-yl)amino)-2-methyl-N-(3-(piperazin-1-ylsulfonyl)propyl) benzamide]",170,
"COc1ccc(-c2cnc3c(Nc4ccc(C(=O)NCCCN5CCNCC5=O)c(C)c4)nccn23)c(F)c1F [Example 69, 4-((3-(2,3-difluoro-4-methoxyphenyl)imidazo [1,2-a]pyrazin-8-yl)amino)-2-methyl-N-(3-(2-oxopiperazin-1-yl)propyl)benzamide]",270,
"COc1ccc(-c2cnc3c(Nc4ccc(C(=O)NCC5CCOC5)c(C)c4)nccn23)cc1F (stereo not drawn) [Example 70, 4-((3-(3-fluoro-4-methoxyphenyl)imidazo [1,2-a]pyrazin-8-yl)amino)-2-methyl-N-((tetrahydrofuran-3-yl)methyl)benzamide]",700,
"COc1ccc(-c2cnc3c(Nc4ccc(C(=O)N(C)CC5CCOC5)c(C)c4)nccn23)cc1F (stereo not drawn) [Example 71, 4-((3-(3-fluoro-4-methoxyphenyl)imidazo [1,2-a]pyrazin-8-yl)amino)-N,2-dimethyl-N-((tetrahydrofuran-3-yl)methyl)benzamide]",1100,
"COc1ccc(-c2cnc3c(Nc4ccc(C(=O)NCC5CCCOC5)c(C)c4)nccn23)cc1F (stereo not drawn) [Example 72, 4-((3-(3-fluoro-4-methoxyphenyl)imidazo [1,2-a]pyrazin-8-yl)amino)-2-methyl-N-((tetrahydro-2H-pyran-3-yl)methyl)benzamide]",1000,
"COc1ccc(-c2cnc3c(Nc4ccc(C(=O)N(C)Cc5ccncc5)c(C)c4)nccn23)cc1F [Example 73, 4-((3-(3-fluoro-4-methoxyphenyl)imidazo [1,2-a]pyrazin-8-yl)amino)-N,2-dimethyl-N-(pyridin-4-ylmethyl)benzamide]",140,
"CN(CCN1CCNCC1)C(=O)c1ccc(Nc2nccn3c(-c4ccc(OCC#N)c(F)c4F)cnc23)cc1Cl [Example 74, 2-chloro-4-((3-(4-(cyanomethoxy)-2,3-difluorophenyl)imidazo [1,2-a]pyrazin-8-yl)amino)-N-methyl-N-(2-(piperazin-1-yl)ethyl)benzamide]",60,
"N#CCOc1ccc(-c2cnc3c(Nc4ccc(C(=O)NCCc5ccncc5)c(Cl)c4)nccn23)c(F)c1F [Example 75, 2-chloro-4-((3-(4-(cyanomethoxy)-2,3-difluorophenyl)imidazo [1,2-a]pyrazin-8-yl)amino)-N-(2-(pyridin-4-yl)ethyl)benzamide]",90,
"N#CCOc1ccc(-c2cnc3c(Nc4ccc(C(=O)NCCCc5ccncc5)c(Cl)c4)nccn23)c(F)c1F [Example 76, 2-chloro-4-[[3-[4-(cyanomethoxy)-2,3-difluoro-phenyl]imidazo[l,2-a]pyrazin-8-yl]amino]-N-[3-(4-pyridyl)propyl] benzamide; 2,2,2-trifluoroacetic acid]",170,
